Among the data in ChEMBL document CHEMBL4680169, “Synthesis and bioevaluation of new vascular-targeting and anti-angiogenic thieno[2,3-d]pyrimidin-4(3H)-ones” (Eur J Med Chem, 2020) are Activity, inhibition and IC50 values, retold here.

Experiment [1] concerns the target T1, Tubulin (Homo sapiens) (UniProt P68371+Q9H4B7+P0DPH7+P68366+Q13509+Q71U36+P04350+Q3ZCM7+P07437+P68363+Q9BQE3+Q6PEY2+Q13885+Q9BVA1+Q9BUF5). Kind of experiment: Induction of microtubule cytoskeleton disruption in human EA.hy926 cells at 50 nM assessed as mitotic catastrophe measured after 24 hrs by DAPI staining based fluorescence microscopic analysis. The experiment is classed as cell-based. The conditions noted are these: EA.hy 926.

For experiment [2], the target named is T1, Tubulin (Homo sapiens). As to the kind of experiment: Induction of microtubule cytoskeleton disruption in human EA.hy926 cells at 25 nM measured after 24 hrs by DAPI staining based fluorescence microscopic analysis. It is filed as cell-based. As to conditions: EA.hy 926.
Experiment [3] is filed under the species Sus scrofa. As to the kind of experiment: Inhibition of porcine brain tubulin polymerization at 10 uM measured at 20 sec interval for 2 hrs by turbidometric method.
A short description of experiment [4]: cells. The conditions noted are these: Homo sapiens, HDFa, 72 h. The experiment is classed as ADME, cell-based.
Description: Cytotoxicity against human HDfa cells assessed as inhibition of cell growth after 72 hrs by MTT assay
The test system of experiment [5] is KB-V1. Kind of experiment: cells. As to conditions: Homo sapiens, KB-V1, 72 h. It is filed as functional, cell-based.
Description: Cytotoxicity against multidrug resistant human KB-V1 cells assessed as inhibition of cell growth after 72 hrs by MTT assay
The test system of experiment [6] is HCT-116. Kind of experiment: cells. It is filed as functional, cell-based. The conditions noted are these: Homo sapiens, HCT-116, 72 h.
Description: Cytotoxicity against human HCT-116 p53 mutant cells assessed as inhibition of cell growth after 72 hrs by MTT assay
The subject of experiment [7] is HCT-116. Kind of experiment: cells. It is filed as functional, cell-based. As to conditions: Homo sapiens, HCT-116, 72 h. This is another data set of the same source.
Description: Cytotoxicity against wild type human HCT-116 cells assessed as inhibition of cell growth after 72 hrs by MTT assay
Experiment [8] concerns 518A2. As to the kind of experiment: cells. The experiment is classed as functional, cell-based. The conditions noted are these: Homo sapiens, 518A2, 72 h.
Description: Cytotoxicity against human 518A2 cells assessed as inhibition of cell growth after 72 hrs by MTT assay
Experiment [9] concerns EA.hy 926. As to the kind of experiment: cells. It is filed as functional, cell-based. As to conditions: Homo sapiens, EA.hy 926, 72 h.
Description: Cytotoxicity against human EA.hy 926 cells assessed as inhibition of cell growth after 72 hrs by MTT assay
For experiment [10], the system named is EA.hy 926. As to the kind of experiment: Induction of F-actin cytoskeleton disruption in human EA.hy926 cells at 50 nM assessed as formation of actin stress fibers measured after 3 hrs by DAPI staining based fluorescence microscopic analysis. The experiment is classed as cell-based.
Experiment [11] deals with EA.hy 926. Kind of experiment: Cell cycle arrest in human EA.hy926 cells assessed as accumulation at G2/M phase at 25 to 70 uM after 24 hrs by propidium iodide staining based flow cytometric analysis. It is filed as functional. The conditions noted are these: dose 25-70 µM.
For experiment [12], the system named is EA.hy 926. As to the kind of experiment: Cell cycle arrest in human EA.hy926 cells assessed as accumulation at sub-G1 phase after 24 hrs by propidium iodide staining based flow cytometric analysis. The experiment is classed as functional.
For experiment [13], the target named is CDK1/Cyclin A (Homo sapiens) (UniProt P06493+P20248). Kind of experiment: Inhibition of full length recombinant human CDK1/cyclin A2 expressed in baculovirus infected sf9 cells using histone H1 as substrate incubated for 15 mins in presence of ATP by ADP-Glo assay.
Chain of CDK1/Cyclin A (Homo sapiens) (P06493 whole entry, looked up): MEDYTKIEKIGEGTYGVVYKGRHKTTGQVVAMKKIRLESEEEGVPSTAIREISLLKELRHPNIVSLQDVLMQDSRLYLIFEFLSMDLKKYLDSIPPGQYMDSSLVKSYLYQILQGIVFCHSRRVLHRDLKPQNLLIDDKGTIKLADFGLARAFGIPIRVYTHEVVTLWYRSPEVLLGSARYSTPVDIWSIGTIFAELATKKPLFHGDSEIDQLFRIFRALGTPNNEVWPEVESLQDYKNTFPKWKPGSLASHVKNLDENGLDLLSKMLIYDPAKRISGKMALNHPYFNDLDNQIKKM
Chain of CDK1/Cyclin A (Homo sapiens) (P20248 whole entry, looked up): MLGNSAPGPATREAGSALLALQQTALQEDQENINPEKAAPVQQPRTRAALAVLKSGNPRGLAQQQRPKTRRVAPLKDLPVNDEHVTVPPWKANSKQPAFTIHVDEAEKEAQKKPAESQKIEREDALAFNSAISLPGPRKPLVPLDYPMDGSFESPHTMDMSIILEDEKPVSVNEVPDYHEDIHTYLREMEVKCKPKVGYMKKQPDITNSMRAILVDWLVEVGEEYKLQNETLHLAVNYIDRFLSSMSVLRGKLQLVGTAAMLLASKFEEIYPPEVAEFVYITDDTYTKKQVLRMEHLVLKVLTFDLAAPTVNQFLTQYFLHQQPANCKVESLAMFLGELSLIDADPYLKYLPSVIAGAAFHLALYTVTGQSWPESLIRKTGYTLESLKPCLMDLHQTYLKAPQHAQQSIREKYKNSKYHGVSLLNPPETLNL
Experiment [14] deals with EA.hy 926. As to the kind of experiment: Vascular disruptive effect in human EA.hy926 cells at 250 nM incubated for 12 hrs by matrigel-based MTT assay. The experiment is classed as functional, cell-based.
Experiment [15] deals with Chorioallantoic membrane. Kind of experiment: Vascular disruptive effect in chicken fertilized egg chorioallantoic membrane at 5 nmol incubated for 24 hrs by CAM assay. As to conditions: Gallus gallus. It is filed as functional, tissue-based.
Experiment [16] has as its system EA.hy 926. As to the kind of experiment: Antiangiogenic activity in human EA.hy926 cells assessed as reduction in tube formation at 150 nM incubated for 6 hrs by matrigel-based MTT assay. The experiment is classed as functional, cell-based.
The subject of experiment [17] is Chorioallantoic membrane. As to the kind of experiment: Antiangiogenic activity in chicken fertilized egg chorioallantoic membrane assessed as reduction in tube formation at 5 nmol incubated for 6 to 24 hrs by CAM assay. It is filed as functional, tissue-based. As to conditions: Gallus gallus, time 6-24 hrs.
Experiment [18] deals with Chorioallantoic membrane. Kind of experiment: Vascular disruptive effect in chicken fertilized egg chorioallantoic membrane at 15 nmol incubated for 24 hrs by CAM assay. The experiment is classed as functional, tissue-based. The conditions noted are these: Gallus gallus.
In experiment [19] the test system is Chorioallantoic membrane. As to the kind of experiment: Vascular disruptive effect in chicken fertilized egg chorioallantoic membrane at 15 nmol incubated for 6 hrs by CAM assay. It is filed as functional, tissue-based. As to conditions: Gallus gallus.
For experiment [20], the species on record is Danio rerio. Kind of experiment: Antiangiogenic activity in zebrafish embryo assessed as reduction in SIV at 250 nM incubated for 48 hrs by fluorescence microscopic analysis. On the set-up: scale not given: the % may be the effect or the level left. The experiment is classed as functional.
The species entered for experiment [21] is Danio rerio. Kind of experiment: Antiangiogenic activity in zebrafish embryo assessed as reduction in tube formation at 500 nM incubated for 48 hrs by fluorescence microscopic analysis. The experiment is classed as functional. More on the design: scale not given: the % may be the effect or the level left.

The source made the active and inactive calls. No cut-off for these calls is given here. Bounds are passed on as bounds.

For `CCOC(=O)N1CCc2c(sc3nc(-c4cc(I)c(OC)c(OC)c4)[nH]c(=O)c23)C1`, the result in experiment [1], in experiment [10], in experiment [11], in experiment [14], in [15] and in experiment [16] was Active. For the same compound, the result in [17] was Active. In addition, the result in [2] and in [18] was inactive. In addition, the inhibition result in [3] and in experiment [13] was “Active” throughout. Moreover, the half-inhibitory concentration (IC50) in [4] is 13100 nM; in [5], 100 nM; in experiment [6] it was 100 nM; in experiment [7], 300 nM; in experiment [8], 100 nM; in experiment [9], 100 nM. Besides, in experiment [12], the Activity entry is “Dose-dependent effect”.
`COc1cc(-c2nc3sc4c(c3c(=O)[nH]2)CCCC4)cc(I)c1OC`: the result in [1], in experiment [10], in [11], in experiment [14], in experiment [19] and in [16] was Active. Moreover, the outcome in [17] was Active. Also, the outcome in experiment [2] was inactive. The inhibition entry in experiment [3] and in experiment [13] was “Active” each time. Besides, the IC50 in experiment [4] is greater than 100000 nM; in experiment [5], 100 nM; in experiment [6], 100 nM; in [7] it was 200 nM; in experiment [8] it was 100 nM; in experiment [9] it was 200 nM. Further, the Activity entry in experiment [12] was “Dose-dependent effect”; in [20], 18%; in experiment [21], 28%.
